We go through two molecules from article PMC4650734, “FV-162 is a novel, orally bioavailable, irreversible proteasome inhibitor with improved pharmacokinetics displaying preclinical efficacy with continuous daily dosing” (Cell Death & Disease, 2015).

Bounds are passed on as bounds.

Series [1] can be described thus: Pharmacokinetic study in NOD/SCID mice. It is filed as in vivo. The following applies: plasma, mouse; for bioavailability: 25 mg/kg p.o. vs 5 mg/kg i.v. As for the experimental part: NOD/SCID mice were administered FV-162 or ONX-0912 at doses of 5 mg/kg intravenously or 25 mg/kg by oral gavage in a 12.5% ethanol, 12.5% Tween-80 vehicle (3 mice per group). Venous blood samples (20–50 μl) were collected at 5, 15, 30 min, and 1, 2, and 4 h postdose. Plasma was separated from whole blood by centrifugation and stored at −20 °C until analysis. […] Venous blood samples (20–50 μl) were collected at 5, 10, 30, and 60 min postdose. Plasma was separated from whole blood by centrifugation and stored at −20 °C until analysis. The Cmax, its associated time (Tmax), the terminal half-life (t1/2), area under the plasma concentration–time curve (AUC), clearance (CL), and volume of distribution (Vd) were evaluated using Pheonix WinNonlin 6.2.1 (Princeton, NJ, USA), and relative oral bioavailability (F%) values were calculated as follows: F%=AUCoral gavage/AUCintravenous × 100.

The nature of series [2]: Dose tolerance studies / MTD in mice. The conditions noted are these: NOD/SCID, mouse, in vivo, po. As for the experimental part:
(§1) NOD/SCID mice were administered FV-162 (30 mg/kg daily, 7 days/week) in a 5% DMSO, 20% Cremophor vehicle by oral gavage or ONX-0912 (30 mg/kg daily, 7 days/week) in a 5% DMSO, 20% Cremophor vehicle by oral gavage for a week. Mice were monitored for changes in body weight, behavior, and physical appearance.

A further series concerns NOD/SCID mice. Put plainly: Dose tolerance studies / MTD in mice. The following applies: 30 mg/kg daily by oral gavage, up to 8 days, NOD/SCID mice. As for the experimental part: as §1
Another series has as its system C-L subunit activity. Put plainly: C-L proteasome activity in RBCs of treated mice. The class given is in vivo, mouse. The conditions noted are these: FV-162 30 mg/ml as printed in Figure 5e legend.
Series [3] relates to 10 human myeloma cell lines. Put plainly: MTS cell growth and viability assay. It is filed as cell-based. The conditions noted are these: 72 h. As for the experimental part:
Human multiple myeloma cell lines 8226, H929, JJN3, KMH11, KMS11, KMS18, LP1, MM.1 S, OPM2, and U266 were grown in Iscove's modified Dulbecco's medium (IMDM). Cell lines were authenticated with short tandem repeat method in September 2011. In addition, cell lines were continually monitored by morphological inspection. Primary mononuclear cells were isolated from peripheral blood or bone marrow samples from multiple myeloma patients at the Princess Margaret Cancer Centre (Toronto, ON, Canada) by Ficoll density gradient centrifugation and cultured in IMDM. All cell culture media were obtained from the Ontario Cancer Institute Tissue Culture Media Facility (Toronto, ON, Canada) and were supplemented with 10% fetal calf serum, 100 μg/ml penicillin, and 100 μg/ml streptomycin (Hyclone, Logan, UT, USA). […]
Cellular viability was primarily assessed by MTS assay according to the manufacturer's instructions (Promega, Madison, WI, USA). […] Cell viability was independently confirmed by reading the optical density at 490 nm and by exclusion of trypan blue stain (Invitrogen, Burlington, ON, Canada). Viability of primary mononuclear cells was determined by Annexin V–fluorescein isothiocyanate and propidium iodide co-staining (Biovision Research Products, Mountain View, CA, USA) using flow cytometry according to the manufacturer's instructions after 48 h of treatment with inhibitors or vehicle control.

The next series concerns T-L subunit activity. Put plainly: T-L proteasome activity in RBCs of treated mice. It is filed as in vivo, mouse. The following applies: FV-162 30 mg/ml as printed in Figure 5e legend.
In series [4] the test system is MM.1S human myeloma cells. Put plainly: Subcutaneous MM.1S myeloma xenograft model. It is filed as in vivo, NOD/SCID mice. The following applies: for tumor burden compared with vehicle control: P<0.01 by day 24, P<0.001 after 27 days. Here is the method: Human MM.1S myeloma cells (5 × 10^6) were injected subcutaneously into 6–8-week-old female NOD/SCID mice (10 mice per group). When tumors were palpable, mice were administered vehicle by oral gavage (5% DMSO, 20% Cremophor; once daily × 3 weeks), carfilzomib intravenously (5 mg/kg, once daily on days 1 and 2 of each week × 3 weeks), ONX-0912 by oral gavage (30 mg/kg, once daily on days 1 and 2 of each week × 3 weeks), or FV-162 by oral gavage (30 mg/kg or 100 mg/kg, once daily × 3 weeks). Over time, tumor volume (tumor length × width^2 × 0.5236) was measured with calipers (Control Company, Friendswood, TX, USA), and mouse body weight was monitored.

The next series deals with CT-L proteasome subunit. Put plainly: CT-L proteasome activity in whole cell lysates of human myeloma cell lines (Suc-Leu-Leu-Val-Tyr-AMC). It is filed as biochemical. Here is the method: Cells were harvested by centrifugation at 1200 r.p.m. at room temperature. Cell pellets were washed with PBS and lysed with assay lysis buffer (50 mM HEPES (2-[4-(2-hydroxyethyl) piperazin-1-yl]ethanesulfonic acid)), pH 7.5; 150 mM NaCl; 1% Triton X-100; 2 mM ATP). Cell lysates were incubated on ice for 30 min, mixed by vortex every 5 min, and centrifuged at 12 000 × g for 10 min. Supernatants were transferred to a 96-well plate in triplicate. For each assay, 10 μg of total protein were incubated for 1 h at 37 °C with increasing concentrations (0.001–10 μM) of test compound or vehicle control diluted in assay buffer (50 mM Tris-HCl (tris(hydroxymethyl)aminomethane-HCl), pH 7.5; 150 mM NaCl). After incubation, a specific fluorogenic proteasome substrate was added to each assay reaction (40 μM in a total volume of 100 μl). […] The excitation wavelength was 360 nm and the fluorescence emission of free AMC released during the enzymatic reaction was detected at 460 nm on a SpectraMax M5 fluorescent spectrophotometric plate reader (Molecular Devices, Sunnyvale, CA, USA). AMC release rate was measured at 37 °C in a kinetic mode, recording every 5 min for 30 min.

In another series the test system is patients. The conditions noted are these: cited from earlier work.

Take `Cc1ncc(C(=O)N[C@@H](COC(F)F)C(=O)N[C@@H](COC(F)F)C(=O)N[C@@H](Cc2ccccc2)C(=O)[C@@]2(C)CO2)s1` [FV-162]: in series [1] (iv, 5 mg/kg i.v.), the AUC (in general, concentration integrated over time) is 111 ng·h/mL; the concentration peaked (Cmax) at 268 ng/mL; the Tmax – broadly, the time from dosing to the highest level – was 5 min; the Vd – broadly, the apparent volume that relates the amount in the body to the concentration in plasma or blood – stood at 96 L/kg. Also, in series [1] (iv, 5 mg/kg i.v.), the clearance (as a rule, a measure of how efficiently the substance is removed, as volume per time) stood at 702 mL/min/kg and the half-life (in general, the time needed for the level to fall by half in the phase considered) stood at 95 min. Besides, in series [1] (po, 25 mg/kg p.o.), the AUC was 51.9 ng·h/mL, the Cmax (commonly the peak of the concentration-time curve) was 21 ng/mL and the Tmax was 60 min. Also, in series [1] (po), the bioavailability (usually the share of a dose that reaches the circulation, judged against a reference dose that is usually intravenous) is 10%. In series [2], the MTD came out at 200 mg/kg. In addition, the “toxicity, behavior and body weight on daily dosing” value in the series with NOD/SCID mice was “no evidence of toxicity, behavioral change, or loss of body weight”. Also, the “inhibition of C-L subunit activity in murine RBCs” value in the series on C-L subunit activity was “did not inhibit”. In series [3] (all 10 human myeloma cell lines), the “cell growth and viability (MTS)” value was “decreased cell growth and viability”. For the same molecule, the “potency in MTS assay relative to ONX-0912” value in series [3] (in 5 of the 10 cell lines) is listed as “over two times more potent than ONX-0912”. For the same molecule, the “inhibition of T-L subunit activity in murine RBCs” value in the series with T-L subunit activity is given as “did not inhibit”. For the same molecule, the “tumor burden compared with vehicle control” value in series [4] (30 mg/kg daily by oral gavage) was “significantly reduced tumor burden”. In addition, the “tumor burden compared with vehicle control” value in series [4] (100 mg/kg daily by oral gavage) was “significantly reduced tumor burden”. For the same molecule, the “tumor growth reduction compared with ONX-0912 (30 mg/kg)” value in series [4] (100 mg/kg daily, by 27 days after inoculation, P<0.05) was “greater reduction in tumor growth”. Moreover, the “potency in CT-L inhibition relative to ONX-0912” value in the series with CT-L proteasome subunit (in 6 of the 10 cell lines) is recorded as “over five times more potent than ONX-0912”. In addition, in the series with CT-L proteasome subunit (total cell lysates, all 10 human myeloma cell lines tested), the IC50 (as a rule, the concentration that inhibits the measured activity by half) was < 60 nM.
For the molecule `COC[C@H](NC(=O)c1cnc(C)s1)C(=O)N[C@@H](COC)C(=O)N[C@@H](Cc1ccccc1)C(=O)[C@@]1(C)CO1` [ONX-0912, reference compound], in [1] (iv, 5 mg/kg i.v.), the area under the curve (AUC) is 54.1 ng·h/mL, the concentration peaked (Cmax) at 187 ng/mL, the Tmax is 5 min and the Vd came out at 48 L/kg. Further, in series [1] (iv, 5 mg/kg i.v.), the clearance amounted to 1490 mL/min/kg and the half-life was 22 min. Besides, in series [1] (po, 25 mg/kg p.o.), the AUC was 8.55 ng·h/mL, the Cmax came out at 38 ng/mL and the time of peak concentration (Tmax) was 5 min. This molecule gave a bioavailability in series [1] (po) of 3%. Moreover, in [2], the MTD is 40 mg/kg. Besides, the “MTD (not reached at cumulative doses up to)” value in the series with patients (administered twice daily) is reported as > 190 mg/day. For the same molecule, in the series with patients (once-daily oral, patients with advanced refractory or recurrent solid tumors), the MTD is recorded as 150 mg/day. Moreover, in series [4] (30 mg/kg twice weekly by oral gavage), the “tumor burden compared with vehicle control” value is given as “significantly reduced tumor burden”.
